Test results from ChEMBL document CHEMBL1201862, “PubChem BioAssay data set” (2004).
Activity calls are given as the source filed them.

Assays:
[1] = luciferase signal loss, tTA control fusion, HeLa F-luc tTA cells, dry powder, counter-screen for HIV Env fusion inhibitor project, dose response (AID 687021); type: functional, cell-based
[2] = inhibition of Env-driven cell fusion – HIV entry, plate reader, dry powder, dose response (AID 687023); type: functional, cell-based
[3] = target: Induced myeloid leukemia cell differentiation protein Mcl-1 (Homo sapiens, UniProt Q07820); type: functional
Chain of Induced myeloid leukemia cell differentiation protein Mcl-1 (Q07820 whole entry): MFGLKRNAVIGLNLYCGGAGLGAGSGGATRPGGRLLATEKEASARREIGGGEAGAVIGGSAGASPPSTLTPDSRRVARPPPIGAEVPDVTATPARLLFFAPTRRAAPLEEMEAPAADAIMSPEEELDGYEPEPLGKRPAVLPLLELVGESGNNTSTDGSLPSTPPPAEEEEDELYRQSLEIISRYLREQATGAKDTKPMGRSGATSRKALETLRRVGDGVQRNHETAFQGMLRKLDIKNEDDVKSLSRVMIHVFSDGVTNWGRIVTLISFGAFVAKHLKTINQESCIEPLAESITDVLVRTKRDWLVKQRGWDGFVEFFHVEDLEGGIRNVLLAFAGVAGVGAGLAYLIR

Bcl-2-like protein 10 = Bcl-2-like protein 10 (Homo sapiens, UniProt Q9HD36); experiment: Bcl-B/TR3 peptide binding disruption – biochemical, fluorescence polarization, FITC-TR3 peptide, selectivity assay for Bfl-1 inhibitor project, primary screen (AID 748);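 note: fluorescence polarization from a fluorescein-labelled TR3 peptide binding purified Bcl-B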
Chain of Bcl-2-like protein 10 (Q9HD36 whole entry): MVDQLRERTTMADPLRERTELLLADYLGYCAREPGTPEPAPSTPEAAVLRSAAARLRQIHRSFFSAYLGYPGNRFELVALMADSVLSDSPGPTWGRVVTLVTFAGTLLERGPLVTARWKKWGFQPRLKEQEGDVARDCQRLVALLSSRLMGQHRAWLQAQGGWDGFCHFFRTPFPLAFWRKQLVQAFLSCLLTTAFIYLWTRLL

[4] = IC50 of Artemis nuclease activity blockers – biochemical, fluorescence intensity, dose response (AID 720701); type: functional;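 note: Artemis endonuclease enzyme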
[5] = Late-stage results from the probe development effort to identify antagonists of arginine vasopressin receptor 1a (AVPR1a): fluorescence-based cell-based dose response OXTR inhibition counterscreen assay.; type: functional
Vasopressin V2 receptor = Vasopressin V2 receptor (Homo sapiens, UniProt P30518); experiment: Late-stage results from the probe development effort to identify antagonists of arginine vasopressin receptor 1a (AVPR1a): fluorescence-based cell-based dose response AVPR2 inhibition counterscreen assay.; type: functional
Chain of Vasopressin V2 receptor (P30518 whole entry): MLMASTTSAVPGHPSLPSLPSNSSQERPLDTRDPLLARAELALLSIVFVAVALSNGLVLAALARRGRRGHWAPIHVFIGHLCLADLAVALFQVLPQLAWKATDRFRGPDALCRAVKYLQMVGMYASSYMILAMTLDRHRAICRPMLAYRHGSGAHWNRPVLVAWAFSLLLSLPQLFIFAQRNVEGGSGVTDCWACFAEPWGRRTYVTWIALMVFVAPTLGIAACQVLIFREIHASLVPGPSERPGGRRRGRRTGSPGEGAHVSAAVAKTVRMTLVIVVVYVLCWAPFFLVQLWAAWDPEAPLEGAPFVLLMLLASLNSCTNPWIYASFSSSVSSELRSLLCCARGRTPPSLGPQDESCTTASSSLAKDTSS

[6] = Late-stage results from the probe development effort to identify antagonists of arginine vasopressin receptor 1a (AVPR1a): fluorescence-based cell-based dose response AVPR1a inhibition assay.; type: functional
Vasopressin V1b receptor = Vasopressin V1b receptor (Homo sapiens, UniProt P47901); experiment: Late-stage results from the probe development effort to identify antagonists of arginine vasopressin receptor 1a (AVPR1a): fluorescence-based cell-based dose response AVPR1b inhibition counterscreen assay.; type: functional
Chain of Vasopressin V1b receptor (P47901 whole entry): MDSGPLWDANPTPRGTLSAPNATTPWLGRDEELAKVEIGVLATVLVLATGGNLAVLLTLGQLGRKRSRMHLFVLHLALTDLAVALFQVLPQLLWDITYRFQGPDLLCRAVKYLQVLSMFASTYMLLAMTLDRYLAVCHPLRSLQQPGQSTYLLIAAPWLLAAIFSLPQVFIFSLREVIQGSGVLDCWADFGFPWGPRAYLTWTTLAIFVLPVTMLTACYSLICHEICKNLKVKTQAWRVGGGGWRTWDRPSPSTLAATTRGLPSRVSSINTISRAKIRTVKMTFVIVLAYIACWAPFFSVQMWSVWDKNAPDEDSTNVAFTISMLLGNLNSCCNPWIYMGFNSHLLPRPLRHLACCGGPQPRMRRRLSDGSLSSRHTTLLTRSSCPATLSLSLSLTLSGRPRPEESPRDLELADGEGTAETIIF

[7] = viability loss in A549 lung cells – cell-based, 24 h, CellTiter-Glo luminescence, cherry-picks, cytotoxicity control, dose response (AID 1053115); type: functional; details: A549, 24 h

## CCOc1ccc(S(=O)(=O)NCc2ccccn2)cc1
[1]
  AC50: > 70 µM (inactive)
[2]
  AC50: > 70 µM (inactive)

## COc1ccc(C(=O)Nc2ccc(N3CCCC3)cc2)cc1
[3]
  IC50: 3.44 µM (active)
Bcl-2-like protein 10
  IC50: 41.9 µM (active)
[4]
  IC50: 16.2 µM (active)

## O=C(C1CCN(c2ncccc2C(F)(F)F)CC1)N(CC1CC1)c1ccc(Cl)cc1
[5]
  IC50: 0.8 µM (active)
Vasopressin V2 receptor
  IC50: 5.91 µM (active)
[6]
  IC50: 0.084 µM (active)
Vasopressin V1b receptor
  IC50: 5.93 µM (active)

## COc1ccccc1CN1CC[C@@H]2[C@H]1c1cc(C#Cc3ccccc3)ccc1N[C@@H]2CO
[7]
  AC50: 46.8 µM (active)
